Marks after values point to notes of the source that are not given here.
Legend:
[1] = assay type: in vitro ADME; conditions: liver microsomes
[2] = 1% DMSO, nephelometry; for Sol2.0: 0.01 M HCl (approximately pH 2.0); for Sol6.5: pH 6.5 phosphate buffer
S. mansoni [3] = conditions: 1 × 100 mg/kg po; ref Keiser et al. 19; 100 mg/kg; cited from earlier work
[4] = tested on: schistosomula or adult S. mansoni; conditions: concentrations up to 170 μM; cited from earlier work
AR = conditions: cited from earlier work
[5] = tested on: androgen-dependent cell line; conditions: cited from earlier work
[6] = single 1250 mg/kg dose, mice; cited from earlier work
[7] = cited from earlier work
physchem = assay type: physicochemical; conditions: pH 7.4
human albumin = human albumin (Homo sapiens, UniProt P02768); assay: in vitro; assay type: in vitro ADME; conditions: plasma, cPPB, estimated from retention on human albumin column
S. mansoni [8] = assay: S. mansoni in vivo study, worm burden reduction in infected NMRI mice; set-up: species or system Schistosoma mansoni in NMRI mice; conditions: Schistosoma mansoni, in Mus musculus, po, 504 h, read-out: S. mansoni WBR
[9] = Mouse exposure study after oral administration; assay type: in vivo, male Swiss outbred mice; conditions: male, Swiss outbred, mouse, plasma, po, 100 mg/kg
in vitro [10] = conditions: human, microsomes
in vitro [11] = conditions: mouse, microsomes

Sequence of human albumin (P02768 25-609): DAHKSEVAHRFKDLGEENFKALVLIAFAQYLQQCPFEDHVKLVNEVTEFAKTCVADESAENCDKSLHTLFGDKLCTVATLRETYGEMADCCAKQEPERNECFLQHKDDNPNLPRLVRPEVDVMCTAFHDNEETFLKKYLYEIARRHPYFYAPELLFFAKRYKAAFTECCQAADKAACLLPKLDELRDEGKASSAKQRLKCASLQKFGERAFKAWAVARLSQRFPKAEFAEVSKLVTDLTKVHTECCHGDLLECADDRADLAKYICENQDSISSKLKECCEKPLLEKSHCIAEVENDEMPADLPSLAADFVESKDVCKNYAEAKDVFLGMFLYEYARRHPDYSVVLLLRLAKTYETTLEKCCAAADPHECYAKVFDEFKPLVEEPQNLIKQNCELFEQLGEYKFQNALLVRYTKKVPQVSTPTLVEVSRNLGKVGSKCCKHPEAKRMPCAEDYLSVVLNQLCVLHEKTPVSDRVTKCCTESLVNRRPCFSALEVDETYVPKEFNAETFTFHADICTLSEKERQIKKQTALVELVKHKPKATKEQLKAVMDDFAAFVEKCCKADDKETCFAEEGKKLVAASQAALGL

Structure (SMILES)	metabolic stability (in words) [1]	Sol2.0 [2]	Sol6.5 [2]	S. mansoni WBR (S. mansoni [3])	effect on adult S. mansoni in vitro [4]	interaction with the AR in a ligand competition assay (AR)	DHT-induced cell proliferation [5]	toxicity after a single dose [6]	pKa [7]	chromatographic logD (physchem)	fraction unbound (human albumin)	inhibition in vivo at 100 mg/kg (S. mansoni [8])	AUC(0-t) [9]	Cmax [9]	Tmax [9]	microsomal CLint (in vitro [10])	microsomal CLint (in vitro [11])
CC1(C)NC(=O)N(c2ccc(F)c(C(F)(F)F)c2)C1=O [Compd 1]	high metabolic stabilities	>100/>100 μg/mL	>100/>100 μg/mL	95 ^h %	almost no effect	no measurable interaction	did block	no apparent toxicity	12.1	–	–	–	–	–	–	–	–
CC1NC(=O)N(c2ccc(F)c(C(F)(F)F)c2)C1=O (centres unmarked) [Compd 23, 3-[4-Fluoro-3-(trifluoromethyl)phenyl]-5-methylimidazolidine-2,4-dione]	high metabolic stabilities	>100/>100 μg/mL	>100/>100 μg/mL	–	–	–	–	–	–	2.4	0.614	66%	163 µM·h	26.6 µM	1 h	17 µL/min/mg	34 µL/min/mg
